Results taken from the CheMixHub viscosity set.

Experiment: xn = mol fraction of the nth substance listed

NCCCN + OCCOCCOCCO
viscosity [mPa·s], 100 kPa
Details	293.15 K	298.15 K	303.15 K	308.15 K	313.15 K	318.15 K
x2 = 0.0253	2.31	2.01	–	1.64	1.46	1.23
x2 = 0.052	2.82	2.42	2.1	1.9	1.74	1.45
x2 = 0.0801	3.56	3.07	2.62	2.28	2.06	1.69
x2 = 0.1098	4.41	3.74	3.15	2.72	2.47	2.02
x2 = 0.1412	5.52	4.68	3.91	3.33	3	2.43
x2 = 0.1746	7.09	5.97	4.92	4.16	3.72	2.99
x2 = 0.21	8.97	7.46	6.09	5.1	4.54	3.69
x2 = 0.2476	11.9	9.77	7.87	6.52	5.7	4.51
x2 = 0.2877	15.8	12.8	10.1	8.27	7.16	5.6
x2 = 0.3305	21.6	17.1	13.3	10.7	9.13	7.02
x2 = 0.3762	29.3	22.8	17.5	13.8	11.6	8.8
x2 = 0.4254	38.8	29.7	22.5	17.5	14.6	11
x2 = 0.4782	50.2	37.8	28.3	21.7	17.9	13.3
x2 = 0.5352	59.8	44.5	33.2	25.5	20.8	15.2
x2 = 0.5969	70.2	52.2	38.6	29.2	23.7	17.3
x2 = 0.6638	72.7	54.6	40.6	30.9	25.2	18.5
x2 = 0.7366	72.1	54.3	40.7	31.2	25.7	19.1
x2 = 0.8162	66.3	50.6	38.4	29.7	24.7	18.6
x2 = 0.9036	57.9	44.7	34.3	26.8	22.5	17.2

NCCCN + CC(O)CO
viscosity [mPa·s], 101.3 kPa
Details	293.15 K	298.15 K	303.15 K	308.15 K	313.15 K	318.15 K
x2 = 0.0488	2.44	2.19	1.92	1.68	1.48	1.32
x2 = 0.0977	3.15	2.8	2.43	2.08	1.82	1.58
x2 = 0.1467	3.95	3.45	2.97	2.51	2.17	1.91
x2 = 0.1958	5.23	4.5	3.79	3.17	2.7	2.34
x2 = 0.2451	6.85	5.81	4.87	4	3.36	2.88
x2 = 0.2945	9.15	7.62	6.28	5.09	4.2	–
x2 = 0.3441	12.3	10	8.12	6.48	5.29	–
x2 = 0.3937	17	13.6	10.8	8.39	6.74	–
x2 = 0.4435	22.8	17.9	14	10.7	8.55	–
x2 = 0.4934	30	23.2	17.9	13.6	10.6	–
x2 = 0.5435	38.5	29.3	22.2	16.7	12.9	–
x2 = 0.5937	47.4	35.8	27	20.1	15.4	–
x2 = 0.644	55.5	41.8	31.4	23.2	17.6	–
x2 = 0.6945	62.5	46.9	35.1	25.9	19.7	–
x2 = 0.745	67.1	50.3	37.8	27.8	21.2	–
x2 = 0.7958	69	51.8	38.8	28.8	21.9	–
x2 = 0.8466	68.9	51.9	39	28.9	22	–
x2 = 0.8976	66.1	50	37.7	28.1	21.5	–
x2 = 0.9487	62.3	47.1	35.7	26.8	20.5	–
